Where two headings read alike, the source gives them in different places.
What was measured:
nuOXPHOS transcripts = assay type: cell-based, mouse; details: for nucOX (composite Z-score): normalized score vs mock-treated (DMSO) wells
mtOXPHOS transcripts = assay type: cell-based, mouse; details: for mitoOX (composite Z-score): normalized score vs mock-treated (DMSO) wells
OXPHOS gene expression = assay type: cell-based, mouse; details: for GE-HTS (composite Z-score): normalized score vs mock-treated (DMSO) wells
cytochrome c = assay type: cell-based, mouse; details: for cyt c (composite Z-score): normalized score vs mock-treated (DMSO) wells
Sequence of cytochrome c (P62897 whole entry): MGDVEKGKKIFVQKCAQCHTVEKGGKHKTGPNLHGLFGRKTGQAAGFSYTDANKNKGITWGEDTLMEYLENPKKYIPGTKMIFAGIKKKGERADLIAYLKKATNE

[1] = test system: mitochondrial membrane potential; assay type: cell-based, mouse; details: for ΔΨm (composite Z-score): normalized score vs mock-treated (DMSO) wells
reactive oxygen species = assay type: cell-based, mouse; details: for ROS (composite Z-score): normalized score vs mock-treated (DMSO) wells
C2C12 myotubes = details: for Viability (composite Z-score): normalized score vs mock-treated (DMSO) wells
[2] = test system: cellular dehydrogenase activity; details: for MTT (composite Z-score): normalized score vs mock-treated (DMSO) wells
[3] = composite Z-score vs mock-treated (DMSO) wells, Conc 20 μM
[4] = composite Z-score vs DMSO, Conc 15.42 μM
[5] = 20 μM, composite Z-score vs DMSO
[6] = composite Z-score vs DMSO, Conc 20 μM
[7] = normalized composite Z-score vs mock-treated (DMSO) wells, Conc 20 μM

For beta-escin, the “nucOX (composite Z-score)” value (nuOXPHOS transcripts; Conc 20 μM) was −0.883, the “mitoOX (composite Z-score)” value (mtOXPHOS transcripts; Conc 20 μM) was −0.745 and the “GE-HTS (composite Z-score)” value (OXPHOS gene expression; Conc 20 μM) was −0.914. For the same compound, the “cyt c (composite Z-score)” value (cytochrome c; Conc 20 μM) was −5.117, the “ΔΨm (composite Z-score)” value ([1]; Conc 20 μM) was −3.416 and the “ROS (composite Z-score)” value (reactive oxygen species; Conc 20 μM) was −3.107. The “Viability (composite Z-score)” value (C2C12 myotubes; Conc 20 μM) was −5.049 and the “MTT (composite Z-score)” value ([2]; Conc 20 μM) was −5.088.
In the case of C/C=C(/C)C(=O)O[C@H]1Cc2c(ccc3ccc(=O)oc23)OC1(C)C [selinidin], the “nucOX (composite Z-score)” value (nuOXPHOS transcripts; Conc 20 μM) is reported as −0.328, the “mitoOX (composite Z-score)” value (mtOXPHOS transcripts; Conc 20 μM) is reported as −0.285 and the “GE-HTS (composite Z-score)” value (OXPHOS gene expression; Conc 20 μM) is reported as −0.347. For the same compound, the “cyt c (composite Z-score)” value (cytochrome c; Conc 20 μM) was −0.478, the “ΔΨm (composite Z-score)” value ([1]; Conc 20 μM) was 0.013 and the “ROS (composite Z-score)” value (reactive oxygen species; Conc 20 μM) was 0.838. For the same compound, the “Viability (composite Z-score)” value (C2C12 myotubes; Conc 20 μM) was 0.773 and the “MTT (composite Z-score)” value ([2]; Conc 20 μM) was −0.359.
CN1CCC[C@H]1c1cccnc1 [nicotine] was tested, and the nucOX (nuOXPHOS transcripts) was −1.032, the mitoOX (mtOXPHOS transcripts) was −1.705 and the GE-HTS (OXPHOS gene expression) was −1.360. For the same compound, the cyt c (cytochrome c) was 0.348, the ΔΨm [1] was −0.423 and the ROS (reactive oxygen species) was 0.503. It also gave a Viability (C2C12 myotubes) of −0.093 and an MTT [2] of −1.228.
In the case of “3-deoxo-3beta-hydroxymexicanolide 16-enol ether”, the nucOX (nuOXPHOS transcripts; [3]) is reported as −0.247, the mitoOX (mtOXPHOS transcripts; [3]) is reported as −0.133 and the GE-HTS (OXPHOS gene expression; [3]) is reported as −0.203. It also gave a cyt c (cytochrome c; [3]) of −0.040, a ΔΨm [1, 3] of −0.059 and an ROS (reactive oxygen species; [3]) of 1.279. The Viability (C2C12 myotubes; [3]) was 0.290 and the MTT [2, 3] was −1.922.
With CC(C)NC[C@H](O)COc1cccc2ccccc12 [(S)-propranolol] the nucOX (nuOXPHOS transcripts; [4]) was 0.623, the mitoOX (mtOXPHOS transcripts; [4]) was 1.161 and the GE-HTS (OXPHOS gene expression; [4]) was 0.857. For the same compound, the cyt c (cytochrome c; [4]) was 0.349, the ΔΨm [1, 4] was −0.340 and the ROS (reactive oxygen species; [4]) was −0.185. For the same compound, the Viability (C2C12 myotubes; [4]) was 0.307 and the MTT [2, 4] was −0.351.
Compound “7-deshydroxypyrogallin-4-carboxylic acid” has a nucOX (nuOXPHOS transcripts; [3]) of −1.039, a mitoOX (mtOXPHOS transcripts; [3]) of −0.770 and a GE-HTS (OXPHOS gene expression; [3]) of −0.997. For the same compound, the cyt c (cytochrome c; [3]) was 0.419, the ΔΨm [1, 3] was −1.109 and the ROS (reactive oxygen species; [3]) was −0.210. It also gave a Viability (C2C12 myotubes; [3]) of 0.121 and an MTT [2, 3] of −0.460.
With COc1ccc2c(c1)OCC(Cc1ccc(OC)c(OC)c1)C2=O (centres unmarked) [deoxysappanone B trimethyl ether] the “nucOX (composite Z-score)” value (nuOXPHOS transcripts; Conc 20 μM) was 1.050, the “mitoOX (composite Z-score)” value (mtOXPHOS transcripts; Conc 20 μM) was 0.613 and the “GE-HTS (composite Z-score)” value (OXPHOS gene expression; Conc 20 μM) was 0.993. The “cyt c (composite Z-score)” value (cytochrome c; Conc 20 μM) was 0.336, the “ΔΨm (composite Z-score)” value ([1]; Conc 20 μM) was −0.194 and the “ROS (composite Z-score)” value (reactive oxygen species; Conc 20 μM) was 1.064. For the same compound, the “Viability (composite Z-score)” value (C2C12 myotubes; Conc 20 μM) was −0.068 and the “MTT (composite Z-score)” value ([2]; Conc 20 μM) was −1.507.
CC(=O)OCC[N+](C)(C)C [acetylcholine] was tested, and the nucOX (nuOXPHOS transcripts; [5]) was 0.533, the mitoOX (mtOXPHOS transcripts; [5]) was 0.014 and the GE-HTS (OXPHOS gene expression; [5]) was 0.358. It also gave a cyt c (cytochrome c; [5]) of −0.038, a ΔΨm [1, 5] of −0.520 and an ROS (reactive oxygen species; [5]) of 0.622. It also gave a Viability (C2C12 myotubes; [5]) of −0.299 and an MTT [2, 5] of −0.712.
COC1=C[C@@H]2[C@@H]3Cc4ccc(OC)c(O)c4[C@]2(CCN3C)CC1=O [sinomenine] gave a nucOX (nuOXPHOS transcripts; [6]) of −0.565, a mitoOX (mtOXPHOS transcripts; [6]) of −1.253 and a GE-HTS (OXPHOS gene expression; [6]) of −0.875. It also gave a cyt c (cytochrome c; [6]) of −0.117, a ΔΨm [1, 6] of −0.657 and an ROS (reactive oxygen species; [6]) of 0.777. The Viability (C2C12 myotubes; [6]) was −0.937 and the MTT [2, 6] was −1.489.
In the case of CN1C(C)(C)CCCC1(C)C [pempidine], the nucOX (nuOXPHOS transcripts) is reported as −0.425, the nucOX (nuOXPHOS transcripts; [6]) is reported as −1.035 and the mitoOX (mtOXPHOS transcripts) is reported as −0.998. It also gave a mitoOX (mtOXPHOS transcripts; [6]) of −0.378, a GE-HTS (OXPHOS gene expression) of −0.656 and a GE-HTS (OXPHOS gene expression; [6]) of −0.874. For the same compound, the cyt c (cytochrome c) was 0.163, the cyt c (cytochrome c; [6]) was 0.146 and the ΔΨm [1] was −0.967. It also gave a ΔΨm [1, 6] of −0.376, an ROS (reactive oxygen species) of 1.119 and an ROS (reactive oxygen species; [6]) of 0.861. For the same compound, the Viability (C2C12 myotubes) was −1.023, the Viability (C2C12 myotubes; [6]) was −0.822 and the MTT [2] was −2.128. It also gave an MTT [2, 6] of −1.419.
In the case of Cc1cc(OC(=O)c2c(C)cc(OC(=O)c3c(C)cc(O)cc3O)cc2O)cc(O)c1C(=O)O [gyrophoric acid], the nucOX (nuOXPHOS transcripts; [7]) is reported as −0.546, the mitoOX (mtOXPHOS transcripts; [7]) is reported as −0.289 and the GE-HTS (OXPHOS gene expression; [7]) is reported as −0.471. For the same compound, the cyt c (cytochrome c; [7]) was −0.557, the ΔΨm [1, 7] was −0.842 and the ROS (reactive oxygen species; [7]) was 0.897. The Viability (C2C12 myotubes; [7]) was −0.579 and the MTT [2, 7] was −0.977.
Work on CC(=O)Nc1c(I)cc(I)c(C(=O)O)c1I [acetriazoic acid] yielded a nucOX (nuOXPHOS transcripts; [6]) of −0.870, a mitoOX (mtOXPHOS transcripts; [6]) of −0.320 and a GE-HTS (OXPHOS gene expression; [6]) of −0.710. It also gave a cyt c (cytochrome c; [6]) of −1.416, a ΔΨm [1, 6] of −0.059 and an ROS (reactive oxygen species; [6]) of 1.158. It also gave a Viability (C2C12 myotubes; [6]) of 0.205 and an MTT [2, 6] of −0.938.

Source: US20090143279A1 (priority 2007, published 2009)
